# Laboratory results published in US20110098223A1, “USE OF THE PAT NANOPEPTIDE IN THE TREATMENT OF AUTOIMMUNE DISEASES” (priority 2008, published 2011).
# System: Rats of OFA (SD) strain
# Experiment: Arthritis induced by Freund's adjuvant (Mycobacterium butyricum) in the rat
# Type: in vivo
# Method: We used the model of arthritis induced by Freund' adjuvant as described in the article of Milan et al., J Neurosci 1986; 6: 899-906. The rats are administered with Mycobacterium butyricum develop usually a severe polyarthritis which resembles to that in human. Rats of OFA (SD) strain (Oncins France Strain A) weighing approximately 200 g received an […] of a 10 mg/ml Mycobacterium butyricum solution at the articulation of the right ankle. For all the measured parameters, the rats were divided into 5 groups (8 rats/group) in the following way: • reference group: the rats received a paraffin injection instead of the solution of Mycobacterium butyricum (no induced arthritis) then receive an intraperitoneal injection of saline solution; • arthritic group+injection of saline solution; • arthritic group+intraperitoneal injection of 3 mg/kg indomethacin; the indomethacin being a NSAID classically used as reference in this kind of test; • arthritic group+intraperitoneal injection of […]; • arthritic group+intraperitoneal injection of […]. The products are administered 5 times per week during 3 weeks. At the beginning of the experimentation (day 0), one determines the initial values for the different parameters (volume of the leg, macroscopic clinical score, sedimentation test and hypersensitivity). During the experiment, several parameters are measured: • the volume of the leg (“paw latency duration”); • the globular sedimentation test (“Erythrocyte Sedimentation rate”); • the macroscopic score: • “0” means that no sign of arthritis was detected; • “1” means that a swelling or an inflammation was detected on a leg; • “2” means that a swelling or an inflammation was detected on two legs; • “3” means that a swelling or an inflammation was detected on at lest 3 legs; • “4” means that a swelling or an inflammation was detected on the 4 legs. • hypersensitivity according to the plantar test: carried out according to Yukinori Nagakura and al, Allodynia and hyperalgesia in adjuvant-induced arthritic rats: time course of progression and efficacy of analgesics, JPET 306: 490-497, 2003, or in Andersen M L and al “Evaluation of acute and chronic treatments with Harpagophytum procumbens one Freund's adjuvant-induced arthritis in rats”. J. Ethnopharmacol. 2004 April; 91 (2-3): 325-30; • the erythrocyte sedimentation rate (ESR): the increase in this one generally accompanies the clinical symptoms met in induced arthritis. The ESR is measured in the arthritic rats (at Day 21) 1 hour and 2 hours after the injection of PAT or indomethacin, according to the protocol of Mahajan S G, et al., Protective Effect of Ethanolic Extract of Seeds of Moringa will oleifera Lam. Against Inflammation Associated with Development of Arthritis in Rats. J. Immunotoxicol. 2007 January; 4 (1): 39-47.
smiles,measurement,setting,value
COc1ccc2c(c1)c(CC(=O)O)c(C)n2C(=O)c1ccc(Cl)cc1 [indomethacin],hypersensitivity measured by the plantar test,"Day 16, PAT at the 2 doses, indomethacin, equivalent to the non-arthritic reference group, FIG. 6",very reduced
same,erythrocyte sedimentation rate (ESR),"arthritic rats, Day 21, FIG. 7",reduced in a very important way
same,clinical macroscopic score,"compared to arthritic rats which received saline solution, until Day 21, FIG. 5",significant reduction
same,volume of the leg,"during the first 12 days, PAT 0.4 and 4 μg/kg i.p., indomethacin 3 mg/kg i.p., 5 times per week, FIG. 4",do not have a notable effect
same,inflammation and volume of the leg,"from Day 14 until Day 21, PAT 0.4 and 4 μg/kg i.p., indomethacin 3 mg/kg i.p., FIG. 4",notable reduction
